Experiments:
[1] = tested on: U87-MG cells; test: Survival assay (MTT), U87-MG; details: MTT; for IC50: U87-MG, Glioma, Grade IV; for cytotoxicity to U87-MG cells (cell survival): up to 100 μM
Method: (§5) Cell lines not mentioned above were grown in DMEM (Sigma, Cat.Nr. D6429) supplemented with 10% Fetal Bovine Serum and 100 U/ml penicillin 100 U/ml streptomycin. All cells were maintained in a 5% CO2, humidified, water-jacketed incubator at 37° C. Cells were passed between 70 and 90% confluence.
(§6) In a 96-well plate, 4000 cells in 100 μl of corresponding medium were seeded. The following day, drugs, diluted in DMSO, were added in 8 concentrations in triplicate. Drugs were added as a 4-fold dilution series starting from 100 μM. Cells were incubated with the drugs for 72 hours. Cell proliferation was assessed by MTT assay according to the manufacturer's protocol (ATCC, Cat. Nr. 30-1010K). Cell survival was normalized to the survival of cells treated with DMSO only. Experiment was performed three times, data represent mean of nine wells±SEM.
In a 96-well plate, 4000 cells in 100 μl of corresponding medium were seeded. The following day, drugs, diluted in DMSO, were added in triplicate at a concentration of 100, 25, 6.25, 1.56, 0.39, 0.1, 0.02, or 0.006 ┘M. Cells were incubated with the drugs for 72 hours. Cell proliferation was assessed by MTT assay according to the manufacturer's protocol (ATCC, Cat. Nr. 30-1010K). Cell survival was normalized to the survival of cells treated with DMSO only. Experiment was performed three times, data represent mean of nine wells±SEM.

[2] = tested on: MIA PaCa-2 cells; test: Survival assay (MTT), MIA PaCa-2; format: cell-based, human; details: MIA PaCa-, Pancreatic Carcinoma, 72 hours, MTT
Method: (§1) Cells were passed between 70 and 90% confluence.
(§2) Cells were incubated with the drugs for 72 hours.

[3] = tested on: HeLa cells; test: Survival assay (MTT), HeLa; details: for IC50: HeLa
Method: as §5, §6
HeLa cells, grown as described above (Materials and Methods), were treated with 5-hydroxymethyl-2′-deoxycytidine and 5-formyl-2′-deoxycytidine. After three days of treatment with these compounds, cell survival was assessed as described above (Materials and Methods).
After three days of treatment with these compounds at a concentration of 100, 25, 6.25, 1.56, 0.39, 0.1, 0.02, or 0.006 μM, cell survival was assessed by MTT assay as described above (Materials and Methods).

[4] = tested on: A-498 cells; test: Survival assay (MTT), A-498; format: cell-based, human; details: A-498, Kidney Carcinoma, 72 hours, MTT
Method: as §1, §2

[5] = tested on: A549 cells; test: Survival assay (MTT), A549; format: cell-based, human; details: A549, Lung Carcinoma, 72 hours, MTT
Method: as §1, §2

[6] = tested on: SK-OV-3 cells; test: Survival assay (MTT), SK-OV-3; format: cell-based, human; details: SK-OV-3, Ovarian Adenocarcinoma, 72 hours, MTT
Method: as §1, §2

[7] = tested on: U937 cells; test: Survival assay (MTT), U937; format: cell-based, human; details: U937, Lymophoma, 72 hours, MTT
Method: as §1, §2

[8] = tested on: MCF-7 cells; test: Survival assay (MTT), MCF-7; format: cell-based, human; details: MCF-7, Epithelial Adenocarcinoma (Breast), 72 hours, MTT
Method: as §1, §2

[9] = tested on: human cancer cell lines; test: Survival assay, range of human cancer cell lines; format: cell-based; details: cell lines of Table 1
Method: as §2
With the knowledge that 5-formyl-2′-deoxycytidine is cytotoxic to cervical carcinoma (HeLa) cells, the study was expanded in two directions: (i) a further compound was assessed: 5-carboxyl-2′-deoxycytidine; and (ii) their cytotoxic effects against a wide range of human cancer cell lines was assessed (Table 1).

[10] = tested on: U2OS cells; test: Survival assay (MTT), U2OS; format: cell-based, human; details: Bone Osteoscarcoma, 72 hours, MTT
Method: as §1, §2

[11] = tested on: HL-60 cells; test: Survival assay (MTT), HL-60; format: cell-based, human; details: HL-60, Acute Promyelocytic Leukemia, 72 hours, MTT
Method: as §1, §2

[12] = tested on: 22Rv1 cells; test: Survival assay (MTT), 22Rv1; format: cell-based, human; details: 22Rv1, Prostate Carcinoma, 72 hours, MTT
Method: as §1, §2

[13] = tested on: NCI-N87 cells; test: Survival assay (MTT), NCI-N87; format: cell-based, human; details: NCI-N87, Gastric Carcinoma, 72 hours, MTT
Method: as §1, §2

[14] = tested on: HCT-116 cells; test: Survival assay (MTT), HCT-116; format: cell-based, human; details: HCT-116, Colon Carcinoma, 72 hours, MTT
Method: as §2

[15] = tested on: A375 cells; test: Survival assay (MTT), A375; format: cell-based, human; details: A375, Malignant Melanoma, 72 hours, MTT
Method: as §1, §2

[16] = tested on: Arpe19 cells; test: Survival assay (MTT), Arpe19; format: cell-based, human; details: Arpe19, Normal, Ectoderm; 72 hours, MTT
Method: as §2
(§3) The present inventors further investigated the extent to which these compounds kill normal human cells; low cytotoxicity against normal human cells is advantageous property for anti-cancer agents. The cytotoxicity of these compounds in various normal human cell lines was therefore investigated (Table 3). Cells were grown and the survival assay was performed as described above (Materials and Methods).

[17] = tested on: Buffy M cells; test: Survival assay (MTT), Buffy M; format: cell-based, human; details: Normal, Bone Marrow, 72 hours
Method: as §1, §2, §3

[18] = tested on: HaCat cells; test: Survival assay (MTT), HaCat; format: cell-based, human; details: Normal, Keratinocytes, 72 hours
Method: as §1, §2, §3

[19] = tested on: DIPG007 cells; test: Survival assay (MTT), DIPG007; format: cell-based, human; details: DIPG007, Glioma, Grade IV, 72 hours
Method: as §1, §2

[20] = tested on: U3017 cells; test: Survival assay (MTT), U3017; format: cell-based, human; details: U3017, Glioma, Grade IV, 72 hours
Method: as §1, §2

[21] = tested on: G166 cells; test: Survival assay (MTT), G166; format: cell-based, human; details: G166, Glioma, Grade IV, 72 hours
Method: (§4) Primary glioma neural stem (GNS) cells (G7, G14, G144, G166) were cultured on poly-D-lysine (Merck Millipore, Cat. Nr. A-003-E) and laminin (R&D Systems, Cat.Nr. 3446-005-01) coated plates in neural stem cell medium (50% DMEM-F12 (Thermofisher, Cat. Nr. 21041025), 50% neurobasal medium (Thermofisher, Cat. Nr. 10888-022), N2 (Life Technologies, Cat. Nr. A-003-E) and B27 supplements (Life Technologies, Cat.Nr. 12587010), 1 mM sodium pyruvate (Life Technologies, Cat.Nr. 11360-039), 2 mM glutamax (Life Technologies, Cat. Nr. 35050038), 1 mM HEPES (Fisher Scientific, Cat. Nr. BP299-1), 0.1 mM β-mercaptoethanol (Life Technologies, Cat. Nr. 31350010), 1× nonessential amino acids (Life Technologies, Cat. Nr. 11140-035), 0.006% bovine serum albumin (Sigma, Cat. Nr. A8577-10ML), 4 μg/ml heparin (Sigma, Cat. Nr. H3149-25KU), 100 U/ml penicillin, 100 μg/ml streptomycin, 20 ng/ml hEGF (R&D Systems, Cat. Nr. 236-EG-200), 10 ng/ml bFGF (Peprotech, Cat. Nr. 100-18B).
as §2

[22] = tested on: Buffy A cells; test: Survival assay (MTT), Buffy A; format: cell-based, human; details: Normal, Bone Marrow, 72 hours
Method: as §1, §2, §3

[23] = tested on: Buffy C cells; test: Survival assay (MTT), Buffy C; format: cell-based, human; details: Normal, Bone Marrow, 72 hours
Method: as §1, §2, §3

[24] = tested on: G26 cells; test: Survival assay (MTT), G26; format: cell-based, human; details: G26, Glioma, Grade IV, 72 hours
Method: as §1, §2

[25] = tested on: U3013 cells; test: Survival assay (MTT), U3013; format: cell-based, human; details: U3013, Glioma, Grade IV, 72 hours
Method: as §1, §2

[26] = tested on: Glioma, Grade IV cell lines; test: Survival assay, panel of 12 patient derived Glioma, Grade IV cell lines; format: cell-based, human; details: of 12 cell lines of Table 2
Method: as §4, §1, §2
Due to lack of activity in previous assays, 5-carboxyl-2′-deoxycytidine was not included in this more rigorous analysis.

[27] = tested on: CB152 cells; test: Survival assay (MTT), CB152; format: cell-based, human; details: CB152, Glioma, Grade IV, 72 hours
Method: as §1, §2

[28] = tested on: G30 cells; test: Survival assay (MTT), G30; format: cell-based, human; details: G30, Glioma, Grade IV, 72 hours
Method: as §1, §2

[29] = tested on: SF188 cells; test: Survival assay (MTT), SF188; format: cell-based, human; details: SF188, Glioma, Grade IV, 72 hours
Method: as §1, §2

[30] = tested on: MRC5 cells; test: Survival assay (MTT), MRC5; format: cell-based, human; details: MRC5, Normal, Lung; 72 hours, MTT
Method: as §1, §2, §3

[31] = tested on: G7 cells; test: Survival assay (MTT), G7; format: cell-based, human; details: G7, Glioma, Grade IV, 72 hours
Method: as §4, §2

[32] = tested on: G14 cells; test: Survival assay (MTT), G14; format: cell-based, human; details: G14, Glioma, Grade IV, 72 hours
Method: as §4, §2

[33] = tested on: G144 cells; test: Survival assay (MTT), G144; format: cell-based, human; details: G144, Glioma, Grade IV, 72 hours
Method: as §4, §2

[34] = tested on: glioblastoma multiforme; details: Phase II trials (NCI 06-C-0064E); cited from earlier work

Nc1nc(=O)n([C@H]2C[C@H](O)[C@@H](CO)O2)cc1C(=O)O [2d5caC, 5-carboxy-2′-deoxycytidine, reference compound]
IC50 ([1]; Homo sapiens, U-87 MG, 72 h): > 25 µM
IC50 ([2]; Homo sapiens, MIA PaCa-2): > 25 µM
IC50 ([3]; Homo sapiens, 72 h): > 25 µM
IC50 ([4]; Homo sapiens, A498, 72 h): > 25 µM
IC50 ([5]; Homo sapiens, A549, 72 h): > 25 µM
IC50 ([6]; Homo sapiens): > 25 µM
IC50 ([7]; Homo sapiens, U-937): > 25 µM
IC50 ([8]; Homo sapiens, MCF7): > 25 µM
cytotoxicity in the cancer cell lines evaluated [9]: no cytotoxic properties
IC50 ([10]; Homo sapiens): > 25 µM
IC50 ([11]; Homo sapiens): > 25 µM
IC50 ([12]; Homo sapiens, 22Rv1, 72 h): > 25 µM
IC50 ([13]; Homo sapiens): > 25 µM
IC50 ([14]; Homo sapiens, HCT-116, 72 h): > 25 µM
IC50 ([15]; Homo sapiens, A-375): > 25 µM

CC(=O)OCc1cn([C@H]2C[C@H](O)[C@@H](CO)O2)c(=O)[nH]c1=O [5-acetoxymethyl-2′-deoxyuridine]
cytotoxicity to U87-MG cells (cell survival) ([1]; 72 hours): unable to survive

Nc1nc(=O)n([C@H]2C[C@H](O)[C@@H](CO)O2)cc1Br [5-bromo-2′-deoxycytidine, reference compound]
IC50 ([1]; Homo sapiens, U-87 MG, 72 h): > 25 µM

Nc1nc(=O)n([C@H]2C[C@H](O)[C@@H](CO)O2)cc1Cl [5-chloro-2′-deoxycytidine, reference compound]
IC50 ([1]; Homo sapiens, U-87 MG, 72 h): > 25 µM

Nc1nc(=O)n([C@H]2C[C@H](O)[C@@H](COP(=O)(O)OP(=O)(O)OP(=O)(O)O)O2)cc1C=O [5-formyl-2′-deoxycytidine-5′-triphosphate]
cytotoxicity to U87-MG cells (cell survival) ([1]; 72 hours): cytotoxic
cytotoxicity to HeLa cells (cell survival) ([3]; three days of treatment, MTT, up to 100 μM): unable to survive

Nc1nc(=O)n([C@H]2C[C@H](O)[C@@H](COP(=O)(O)OP(=O)(O)OP(=O)(O)O)O2)cc1CO [5-hydroxymethyl-2′-deoxycytidine-5′-triphosphate]
cytotoxicity to U87-MG cells (cell survival) ([1]; 72 hours): cytotoxic

Nc1nc(=O)n([C@H]2C[C@H](O)[C@@H](CO)O2)cc1I [5-iodo-2′-deoxycytidine, reference compound]
IC50 ([1]; Homo sapiens, U-87 MG, 72 h): > 25 µM

COCc1cn([C@H]2C[C@H](O)[C@@H](CO)O2)c(=O)[nH]c1=O [5-methoxymethyl-2′-deoxyuridine]
cytotoxicity to U87-MG cells (cell survival) ([1]; 72 hours): unable to survive

O=c1[nH]cc(F)c(=O)[nH]1 [5fU, 5-flurouracil, reference compound]
IC50 ([1]; 72 hours): > 25 µM
IC50 [2]: 8.1 µM
IC50 [16]: > 25 µM
IC50 [17]: > 25 µM
IC50 ([3]; Cervical Adenocarcinoma, 72 hours, MTT): > 25 µM
IC50 [18]: 0.523 µM
IC50 [19]: 4.3 µM
IC50 [4]: 2.37 µM
IC50 [20]: 3.92 µM
IC50 [5]: 1.85 µM
IC50 [6]: 3.76 µM
IC50 [21]: 4.81 µM
IC50 [7]: 7.45 µM
IC50 [22]: > 25 µM
IC50 [23]: > 25 µM
IC50 [8]: > 25 µM
IC50 [10]: 2.89 µM
IC50 [24]: 7.12 µM
IC50 [11]: > 25 µM
IC50 [25]: 4.14 µM
number of Glioma, Grade IV cell lines killed [26]: 11 of 12
IC50 [27]: 6.5 µM
IC50 [28]: 23.3 µM
IC50 [29]: 3.88 µM
IC50 [30]: > 25 µM
IC50 [31]: 6.46 µM
IC50 [32]: 11.6 µM
IC50 [12]: > 25 µM
IC50 [13]: 1.52 µM
IC50 [14]: 3.54 µM
IC50 [33]: 6.8 µM
IC50 [15]: 7.87 µM

Avastin (RTM): bevacizumab, an angiogenesis inhibitor with multiple oncology indications
overall survival benefit [34]: did not yield an overall survival benefit

From US12605397B2, “Deoxy-cytidine or uridine derivatives for use in cancer therapies” (HEMISPHERIAN AS, priority 2019, dated 2026)
